One compound from publication PMC5862990, “Dynamical origins of heat capacity changes in enzyme-catalysed reactions” (Nature Communications, 2018) can be followed below.

The target of this assay is T1, MalL (Bacillus subtilis, UniProt O06994).
T1 construct: wild-type, recombinant, monomeric
Briefly: X-ray co-crystal structure. It counts as binding. To be noted: co-crystallised with 0.5 mM ligand, 18 °C; active site; transition-state analogue.

T1 sequence (O06994 whole entry): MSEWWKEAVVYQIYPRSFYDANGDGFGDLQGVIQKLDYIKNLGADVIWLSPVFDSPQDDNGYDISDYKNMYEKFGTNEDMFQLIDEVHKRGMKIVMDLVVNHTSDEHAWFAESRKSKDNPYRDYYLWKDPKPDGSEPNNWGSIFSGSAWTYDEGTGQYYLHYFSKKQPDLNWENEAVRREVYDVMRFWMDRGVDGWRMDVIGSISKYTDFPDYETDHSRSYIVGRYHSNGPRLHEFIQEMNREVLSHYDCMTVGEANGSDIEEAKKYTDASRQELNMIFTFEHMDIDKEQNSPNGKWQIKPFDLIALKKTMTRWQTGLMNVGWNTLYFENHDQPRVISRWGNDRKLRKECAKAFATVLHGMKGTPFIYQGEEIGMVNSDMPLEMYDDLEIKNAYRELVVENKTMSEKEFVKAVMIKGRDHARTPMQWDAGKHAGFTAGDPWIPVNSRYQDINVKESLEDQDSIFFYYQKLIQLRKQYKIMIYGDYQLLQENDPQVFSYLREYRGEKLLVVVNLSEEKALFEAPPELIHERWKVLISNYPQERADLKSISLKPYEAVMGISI

With `OC[C@H]1NC[C@H](O)[C@@H](O)[C@@H]1O` [1-deoxynojirimycin], the X-ray co-crystal structure entry was “Coordinates and structure factors for MalL co-crystallised with 1-deoxynojirimycin are deposited in the PDB”.
